From patent US5703092A, “Hydroxamic acid compounds as metalloprotease and TNF inhibitors” (The DuPont Merck Pharmaceutical Company, priority 1996, dated 1997)

Columns and labels:
truncated MMP-3 = test: Bisacetylated Substance P/MMP-3 Fluorescent Assay; type: biochemical; conditions: bisacetylated substrate with MMP-3
From the text: Bisacetylated Substance P/MMP-3 Fluorescent Assay
A high capacity enzymatic assay was developed to detect potential inhibitors of MMP-3. The assay uses a derivative of a peptide substrate, substance P (Arg-Pro-Lys-Pro-Gln-Gln-Phe-Phe-Gly-Leu-Met), which is cleaved by MMP-3 exclusively at the glutamine-phenylalanine bond. In order to adapt this assay for high throughput screening, we have developed a fluorimetric method of product detection. The production of the hydrolysis product, substance P 7-11, is measured by reaction with fluorescamine, a fluorogenic compound which reacts with the primary amine of this fragment. The substance P substrate is bisacetylated to block the primary amines of the intact substrate. Thus, the resulting fluorescence represents generation of product (7-11 peptide) formed upon cleavage by MMP-3, and is quantitated using a standard curve prepared with known concentrations of 7-11 peptide.
To evaluate inhibition of MMP-3, compounds were prepared at a concentration of 10 mM in 100% methanol, and then further diluted to a 20× molar stock. Five microliters of each drug stock was added to the assay in the presence of 20 nM truncated MMP-3 in 67.5 mM tricine (pH 7.5), 10 mM CaCl2, 40 mM NaCl, and 0.005% Brij 35 in a final volume of 100 microliters. Bisacetylated substance P ([…]) was added, and the assay was run for 1 hour at 25° C. […]

[1] = Ex Vivo Assay for Bioavailability of MMP-3 Inhibitors (plasma level after dosing); type: in vivo; conditions: rat, po; rats, dosed orally at 100 mg/kg; plasma level read via MMP-3 inhibition against a spiked plasma standard curve
Description: Ex Vivo Assay for Bioavailability of MMP-3 Inhibitors
Blood was collected by cardiac puncture from rats at different times after dosing I.V., I.P., or P.O. with compound in order to determine the levels of inhibitor present. Plasma was extracted with 10% TCA in 95% methanol, and placed on ice for 10 minutes. The plasma was then centrifuged for 15 minutes at 14,000 rpm in an Eppendorf microcentrifuge. The supernatant was removed, recentrifuged, and the resulting supernatant was diluted 1:10 in 50 mM tricine, pH 8.5. The pH of the sample was adjusted to 7.5, and then assayed in the MMP-3 substance P fluorescent enzymatic assay. Plasma from naive rats was extracted by the same method and used as a negative control. This plasma was also used to prepare a spiked plasma curve of the compound of interest. Known concentrations of the compound were added to control plasma, the plasma was extracted by the same method, and then assayed in the MMP-3 enzymatic assay. A standard curve was prepared that related percent inhbition in the MMP-3 assay to the concentration of drug added in the spiked samples. Based on the percent inhibition in the presence of plasma from dosed rats, the concentration of compound was determined using the standard curve.

Chain of truncated MMP-3 (P08254 100-272 limits assumed): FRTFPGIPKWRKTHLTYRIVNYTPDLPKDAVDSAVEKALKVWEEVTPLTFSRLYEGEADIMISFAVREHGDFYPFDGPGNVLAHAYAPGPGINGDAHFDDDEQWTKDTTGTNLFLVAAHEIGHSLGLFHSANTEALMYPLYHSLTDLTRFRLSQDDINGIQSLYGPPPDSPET

Km (truncated MMP-3) [µM] | Cmax [1] [nM] | Compound | Vmax (truncated MMP-3) [nmoles 7-11 peptide/min]
769 ± 52 | – | bisacetylated substrate: bisacetylated derivative of peptide substrate substance P (Arg-Pro-Lys-Pro-Gln-Gln-Phe-Phe-Gly-Leu-Met), cleaved by MMP-3 | 0.090±0.003
– | 960 | CC(C)C[C@@H](C(=O)N[C@H](c1nc2cc(Cl)ccc2[nH]1)C(C)(C)C)[C@H](O)C(=O)NO [Example 86, N-[1(S)-(5-chloro-2-benzimidazolyl)-2,2,2-trimethylethyl]-[3-(N-hydroxyaminocarbonyl)-3(S)-hydroxy-2(R)-isobutyl]propanamide] | –
